Test [1] addresses Ribosomal protein S6 kinase alpha-4 (Homo sapiens) (UniProt O75676). Description: Selectivity interaction (ActivX KiNativ screen (ex vivo kinase selectivity in human PBMCs)) EUB0001619a RPS6KA4. It is filed as cell-based. Conditions: PBMC, at 1 µM.
Test [2] concerns the target T1, Tyrosine-protein kinase Mer (Homo sapiens) (UniProt Q12866).
T1 sequence (whole entry): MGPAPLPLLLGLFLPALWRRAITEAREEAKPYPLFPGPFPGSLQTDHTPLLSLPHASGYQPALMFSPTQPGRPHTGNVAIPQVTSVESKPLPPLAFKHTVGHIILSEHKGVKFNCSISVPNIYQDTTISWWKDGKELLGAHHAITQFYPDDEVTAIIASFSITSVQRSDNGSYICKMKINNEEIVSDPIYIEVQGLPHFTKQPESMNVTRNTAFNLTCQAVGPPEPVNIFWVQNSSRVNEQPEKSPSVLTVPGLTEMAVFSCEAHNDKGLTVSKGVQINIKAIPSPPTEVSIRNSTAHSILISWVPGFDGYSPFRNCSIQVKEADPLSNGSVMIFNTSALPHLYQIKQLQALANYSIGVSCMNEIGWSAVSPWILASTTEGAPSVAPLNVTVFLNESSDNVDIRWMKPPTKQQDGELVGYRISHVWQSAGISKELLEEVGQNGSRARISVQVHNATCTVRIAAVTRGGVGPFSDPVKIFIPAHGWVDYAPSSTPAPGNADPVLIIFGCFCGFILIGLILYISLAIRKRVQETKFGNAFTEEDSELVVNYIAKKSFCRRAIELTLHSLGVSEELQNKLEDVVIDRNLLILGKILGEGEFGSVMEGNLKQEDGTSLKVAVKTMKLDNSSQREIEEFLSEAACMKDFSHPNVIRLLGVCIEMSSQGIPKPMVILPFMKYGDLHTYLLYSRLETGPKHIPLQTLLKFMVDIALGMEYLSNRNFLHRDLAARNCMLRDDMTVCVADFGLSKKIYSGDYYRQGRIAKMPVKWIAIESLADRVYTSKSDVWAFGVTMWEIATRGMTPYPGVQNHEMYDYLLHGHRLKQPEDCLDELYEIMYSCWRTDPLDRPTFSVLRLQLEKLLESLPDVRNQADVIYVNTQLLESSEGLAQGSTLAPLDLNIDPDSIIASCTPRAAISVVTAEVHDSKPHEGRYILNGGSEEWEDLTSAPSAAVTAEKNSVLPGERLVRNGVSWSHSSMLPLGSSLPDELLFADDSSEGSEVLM
Description: Selectivity interaction (KinomeScan (DiscoverX)) EUB0000666a MERTK. Conditions: at 10 µM.

Test [3] concerns the target T2, Cytoplasmic tyrosine-protein kinase BMX (Homo sapiens) (UniProt P51813).
T2 sequence (whole entry): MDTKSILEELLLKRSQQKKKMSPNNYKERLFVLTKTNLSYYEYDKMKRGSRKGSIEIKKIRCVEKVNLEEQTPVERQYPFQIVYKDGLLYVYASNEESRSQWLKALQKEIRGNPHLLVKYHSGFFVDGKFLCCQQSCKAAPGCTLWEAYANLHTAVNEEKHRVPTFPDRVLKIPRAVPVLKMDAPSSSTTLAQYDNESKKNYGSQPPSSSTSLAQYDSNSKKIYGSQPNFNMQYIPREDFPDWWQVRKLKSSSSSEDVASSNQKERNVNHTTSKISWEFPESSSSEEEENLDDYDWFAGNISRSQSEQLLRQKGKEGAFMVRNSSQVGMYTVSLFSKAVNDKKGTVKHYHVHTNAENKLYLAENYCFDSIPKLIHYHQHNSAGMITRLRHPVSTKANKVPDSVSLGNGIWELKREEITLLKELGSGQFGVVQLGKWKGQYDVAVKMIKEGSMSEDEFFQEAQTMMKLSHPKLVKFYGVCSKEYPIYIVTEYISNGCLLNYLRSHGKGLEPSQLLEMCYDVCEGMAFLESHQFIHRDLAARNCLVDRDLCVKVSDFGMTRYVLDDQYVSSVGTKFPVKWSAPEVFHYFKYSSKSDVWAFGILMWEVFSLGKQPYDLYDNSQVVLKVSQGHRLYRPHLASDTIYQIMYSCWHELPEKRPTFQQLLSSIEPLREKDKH
Put plainly: Selectivity interaction (KinomeScan (DiscoverX)) EUB0000607a BMX. Conditions: at 10 µM.

Test [4] deals with BMP-2-inducible protein kinase (Homo sapiens) (UniProt Q9NSY1). Put plainly: Selectivity interaction (Kinase panel (DSF assay)) EUB0001559a BMP2K. In general terms: Differential scanning fluorimetry follows unfolding on heating by fluorescence.
Test [5] addresses T3, cAMP-dependent protein kinase catalytic subunit PRKX (Homo sapiens) (UniProt P51817).
T3 sequence (whole entry): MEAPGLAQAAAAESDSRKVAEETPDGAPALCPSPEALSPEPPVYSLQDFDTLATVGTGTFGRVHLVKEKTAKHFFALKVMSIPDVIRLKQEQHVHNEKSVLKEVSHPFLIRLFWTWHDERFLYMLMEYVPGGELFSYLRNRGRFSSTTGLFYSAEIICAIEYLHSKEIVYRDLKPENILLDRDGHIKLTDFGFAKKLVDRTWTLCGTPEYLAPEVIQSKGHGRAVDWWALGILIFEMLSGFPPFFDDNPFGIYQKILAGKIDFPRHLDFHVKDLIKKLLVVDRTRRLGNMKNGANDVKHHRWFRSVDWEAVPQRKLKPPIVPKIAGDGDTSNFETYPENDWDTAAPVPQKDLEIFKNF
Description: Selectivity interaction (Upstate Kinase Profiler service (Millipore)) EUB0000056c PRKX. The note with it: at 1 µM.

In test [6] the target is Homeodomain-interacting protein kinase 3 (Homo sapiens, UniProt Q9H422). Description: Selectivity interaction (KinomeScan (DiscoverX)) EUB0000655a HIPK3. Conditions: at 10 µM.
Test [7] has as its target T4, Mitogen-activated protein kinase kinase kinase 7 (Homo sapiens) (UniProt O43318).
T4 sequence (whole entry): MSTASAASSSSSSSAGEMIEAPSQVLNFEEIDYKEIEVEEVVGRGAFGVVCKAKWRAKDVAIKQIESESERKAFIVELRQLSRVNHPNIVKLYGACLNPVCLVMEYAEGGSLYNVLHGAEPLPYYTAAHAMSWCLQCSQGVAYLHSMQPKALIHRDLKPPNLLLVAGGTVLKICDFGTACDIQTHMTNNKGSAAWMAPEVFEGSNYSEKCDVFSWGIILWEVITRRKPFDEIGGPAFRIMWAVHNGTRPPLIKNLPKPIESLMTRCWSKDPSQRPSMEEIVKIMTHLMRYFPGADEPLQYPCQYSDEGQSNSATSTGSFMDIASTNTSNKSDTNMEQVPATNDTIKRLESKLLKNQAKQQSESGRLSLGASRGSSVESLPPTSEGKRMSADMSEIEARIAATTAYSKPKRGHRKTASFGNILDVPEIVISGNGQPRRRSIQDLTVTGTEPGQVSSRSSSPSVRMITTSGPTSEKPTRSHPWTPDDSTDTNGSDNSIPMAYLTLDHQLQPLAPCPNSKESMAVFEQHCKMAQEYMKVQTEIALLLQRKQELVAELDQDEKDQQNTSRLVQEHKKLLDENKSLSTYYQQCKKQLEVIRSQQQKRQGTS
Put plainly: Selectivity interaction (KinomeScan (DiscoverX)) EUB0000655a MAP3K7. Conditions: at 10 µM.

Chain of Homeodomain-interacting protein kinase 3 (Q9H422 whole entry, looked up): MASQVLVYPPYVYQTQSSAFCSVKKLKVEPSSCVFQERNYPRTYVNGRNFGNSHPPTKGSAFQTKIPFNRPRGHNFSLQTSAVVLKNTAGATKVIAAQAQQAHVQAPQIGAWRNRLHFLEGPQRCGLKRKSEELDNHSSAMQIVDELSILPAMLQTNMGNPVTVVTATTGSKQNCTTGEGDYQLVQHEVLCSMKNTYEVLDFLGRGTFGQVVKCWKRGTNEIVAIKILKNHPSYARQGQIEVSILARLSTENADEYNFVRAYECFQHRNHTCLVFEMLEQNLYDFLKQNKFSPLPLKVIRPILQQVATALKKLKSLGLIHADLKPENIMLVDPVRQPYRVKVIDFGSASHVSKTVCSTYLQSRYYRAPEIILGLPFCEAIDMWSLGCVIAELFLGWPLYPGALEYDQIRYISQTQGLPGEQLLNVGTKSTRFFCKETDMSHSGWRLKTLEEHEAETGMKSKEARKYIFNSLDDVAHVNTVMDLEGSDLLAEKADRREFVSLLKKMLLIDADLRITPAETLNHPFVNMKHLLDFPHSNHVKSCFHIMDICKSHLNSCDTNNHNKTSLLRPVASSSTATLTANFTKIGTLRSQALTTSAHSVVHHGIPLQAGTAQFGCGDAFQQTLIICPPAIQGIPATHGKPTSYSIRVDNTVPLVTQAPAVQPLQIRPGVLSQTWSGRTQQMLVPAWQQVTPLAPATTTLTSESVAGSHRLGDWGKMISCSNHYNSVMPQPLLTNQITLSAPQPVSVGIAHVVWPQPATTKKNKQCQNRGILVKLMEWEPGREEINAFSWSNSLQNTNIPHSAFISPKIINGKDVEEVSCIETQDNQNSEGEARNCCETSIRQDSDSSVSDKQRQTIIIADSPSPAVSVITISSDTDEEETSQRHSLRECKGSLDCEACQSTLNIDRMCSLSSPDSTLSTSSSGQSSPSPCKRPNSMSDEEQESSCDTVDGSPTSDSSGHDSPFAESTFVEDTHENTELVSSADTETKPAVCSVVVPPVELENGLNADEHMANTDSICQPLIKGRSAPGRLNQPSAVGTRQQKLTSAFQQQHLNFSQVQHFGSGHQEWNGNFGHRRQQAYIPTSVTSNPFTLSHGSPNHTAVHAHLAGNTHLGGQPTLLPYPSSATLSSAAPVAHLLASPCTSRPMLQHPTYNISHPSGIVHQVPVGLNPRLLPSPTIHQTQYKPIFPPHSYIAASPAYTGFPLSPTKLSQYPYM
Chain of BMP-2-inducible protein kinase (Homo sapiens) (Q9NSY1 whole entry, looked up): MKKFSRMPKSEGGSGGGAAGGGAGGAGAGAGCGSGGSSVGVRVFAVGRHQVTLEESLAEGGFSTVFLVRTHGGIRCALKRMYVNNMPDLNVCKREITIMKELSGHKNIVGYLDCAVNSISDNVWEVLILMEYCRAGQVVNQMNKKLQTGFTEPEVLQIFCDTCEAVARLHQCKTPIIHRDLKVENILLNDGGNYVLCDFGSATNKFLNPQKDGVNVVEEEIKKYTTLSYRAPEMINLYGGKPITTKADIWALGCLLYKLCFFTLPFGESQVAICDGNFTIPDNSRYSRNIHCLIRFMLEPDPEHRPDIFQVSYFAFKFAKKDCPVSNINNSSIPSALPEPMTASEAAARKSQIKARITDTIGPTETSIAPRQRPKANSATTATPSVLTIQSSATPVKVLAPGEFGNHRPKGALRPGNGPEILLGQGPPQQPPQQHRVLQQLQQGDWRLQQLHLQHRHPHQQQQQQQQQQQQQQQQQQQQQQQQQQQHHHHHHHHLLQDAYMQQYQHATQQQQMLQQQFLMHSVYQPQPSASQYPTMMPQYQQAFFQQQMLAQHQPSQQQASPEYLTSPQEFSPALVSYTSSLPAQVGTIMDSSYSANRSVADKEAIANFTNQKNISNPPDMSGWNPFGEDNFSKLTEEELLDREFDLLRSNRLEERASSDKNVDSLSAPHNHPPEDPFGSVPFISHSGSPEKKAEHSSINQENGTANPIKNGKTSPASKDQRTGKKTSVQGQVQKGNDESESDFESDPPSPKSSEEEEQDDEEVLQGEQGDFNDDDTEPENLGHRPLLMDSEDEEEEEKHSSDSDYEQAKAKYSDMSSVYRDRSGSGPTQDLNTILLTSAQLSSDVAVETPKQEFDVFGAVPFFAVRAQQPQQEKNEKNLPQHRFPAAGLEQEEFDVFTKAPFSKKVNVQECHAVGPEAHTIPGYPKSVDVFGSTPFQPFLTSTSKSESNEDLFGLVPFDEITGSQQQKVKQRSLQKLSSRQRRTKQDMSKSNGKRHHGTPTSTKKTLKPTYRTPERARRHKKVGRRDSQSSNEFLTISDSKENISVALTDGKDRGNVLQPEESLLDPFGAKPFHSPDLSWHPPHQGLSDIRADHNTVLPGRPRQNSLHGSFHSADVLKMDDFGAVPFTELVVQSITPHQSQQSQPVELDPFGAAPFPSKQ
Chain of Ribosomal protein S6 kinase alpha-4 (Homo sapiens) (O75676 whole entry, looked up): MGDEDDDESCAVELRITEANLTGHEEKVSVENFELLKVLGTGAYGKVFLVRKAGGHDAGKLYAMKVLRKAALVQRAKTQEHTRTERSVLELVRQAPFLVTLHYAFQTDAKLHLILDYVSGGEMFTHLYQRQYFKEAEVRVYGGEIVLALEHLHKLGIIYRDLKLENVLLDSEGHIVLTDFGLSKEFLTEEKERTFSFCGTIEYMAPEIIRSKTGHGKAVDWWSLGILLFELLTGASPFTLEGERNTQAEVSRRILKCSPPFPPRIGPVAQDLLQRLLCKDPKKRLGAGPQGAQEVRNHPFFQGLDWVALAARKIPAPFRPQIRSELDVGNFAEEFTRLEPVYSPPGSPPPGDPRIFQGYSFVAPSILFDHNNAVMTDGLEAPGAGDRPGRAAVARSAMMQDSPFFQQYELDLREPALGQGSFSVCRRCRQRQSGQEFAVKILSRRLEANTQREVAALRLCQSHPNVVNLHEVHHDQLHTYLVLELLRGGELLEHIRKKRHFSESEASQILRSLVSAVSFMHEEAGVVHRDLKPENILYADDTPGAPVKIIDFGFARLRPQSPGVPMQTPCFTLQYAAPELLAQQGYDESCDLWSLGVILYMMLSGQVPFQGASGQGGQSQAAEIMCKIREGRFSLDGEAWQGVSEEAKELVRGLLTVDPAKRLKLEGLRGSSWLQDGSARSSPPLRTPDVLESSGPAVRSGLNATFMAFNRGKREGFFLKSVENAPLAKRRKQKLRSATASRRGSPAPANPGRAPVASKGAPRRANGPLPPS

In the case of `N#Cc1cccc(-c2c[nH]c3ncnc(N4CCOCC4)c23)c1`, the % of inhibition in test [1] came out at 20%.

Consider `O=C(NOC[C@H](O)CO)c1ccc(F)c(F)c1Nc1ccc(I)cc1F`, for which the % of control in test [2] was found to be 100%.

Compound `CNC(=O)Nc1ccc(-c2nc(N3CC4CCC(C3)O4)c3cnn(C4CCC5(CC4)OCCO5)c3n2)cc1` gave a % of control in test [3] of 83%.

`CN(C(=O)c1cnn2cccnc12)c1cc2c(cc1N1CCOCC1)C(=O)N(C[C@@H](F)C(C)(C)O)C2` yielded a dTM in test [4] of -0.2 K.

As for `Cc1ccc(-c2ccc3c(ccc4sc5c(c43)NC[C@@H](C)NC5=O)n2)cn1`, in test [5], the % of inhibition was 8%.

As to `CN(C)CCOc1ccc(-c2nc(-c3ccncc3)c(-c3ccc4c(c3)CC/C4=N\O)[nH]2)cc1`, the % of control in test [6] was 62%; in test [7], 89%.

The values above are taken from ChEMBL document CHEMBL5465560, “Selectivity Literature for EUbOPEN Chemogenomic Library” (2024).
